In the RepoRT retention time repository:
Where a name gives a salt, the structure may show the parent alone.

Experiment: RP, Waters ACQUITY Premier BEH C18, 100 × 2.1 mm, 1.7 µm, 40 °C, 0.3 to 0.4 mL/min, estimated dead time 0.73 min; A: water + 0.1% formic acid; B: acetonitrile + 0.1% formic acid; gradient (min/%B) 0/0.5 0.1/0.5 10/80 10.1/99.5 12/0.5 12.1/0.5 14.5/0.5
Settings: stereoisomer not certain
Work on Nc1c(O)cccc1C(=O)CC(N)C(=O)O (centres undefined) [HYDROXYKYNURENINE] yielded an LC retention time of 2.07 min. O=C(O)C(O)Cc1ccc(O)cc1 (centres undefined) [HYDROXYPHENYLLACTATE] showed an LC retention time of 4.05 min. With OCCc1ccc(O)c(O)c1 [HYDROXYTYROSOL] the LC retention time was 3.89 min. Work on CC(CCC(=O)O)C1CCC2C3C(O)C(O)C4CC(O)CCC4(C)C3CCC12C (centres undefined) [HYOCHOLIC ACID] yielded an LC retention time of 6.98 min. O=c1[nH]cnc2nc[nH]c12 [HYPOXANTHINE] gave an LC retention time of 1.76 min. In the case of CC(C)=CCOc1c2occc2cc2ccc(=O)oc12 [IMPERATORIN], the LC retention time is reported as 7.46 min. OCCc1c[nH]c2ccccc12 [INDOLE-3-ETHANOL] showed an LC retention time of 5.81 min. Compound O=C(O)CCc1c[nH]c2ccccc12 [INDOLE-3-PROPIONIC ACID] has an LC retention time of 6.22 min. For O=CCc1c[nH]c2ccccc12 [INDOLEACETALDEHYDE], the LC retention time was 6.28 min. Compound O=C(O)Cc1c[nH]c2ccccc12 [INDOLEACETIC ACID] has an LC retention time of 5.72 min. In the case of O=C(O)C=Cc1c[nH]c2ccccc12 [INDOLEACRYLIC ACID], the LC retention time is reported as 5.61 min. For O=S(=O)(O)Oc1c[nH]c2ccccc12 [INDOXYL SULFATE], the LC retention time was 4.58 min. Compound O=c1[nH]cnc2c1ncn2C1OC(CO)C(O)C1O (centres undefined) [INOSINE] has an LC retention time of 3.37 min. CC(C)C(=O)O [ISOBUTYRATE] gave an LC retention time of 3.67 min. Compound CC(C)C(=O)OC(CC(=O)[O-])C[N+](C)(C)C [ISOBUTYRYL-L-CARNITINE] has an LC retention time of 3.82 min. O=C(O)CC(C(=O)O)C(O)C(=O)O (centres undefined) [ISOCITRATE] gave an LC retention time of 1.16 min. With CC(C)CC(=O)OC(CC(=O)[O-])C[N+](C)(C)C (centres undefined) [ISOVALERYLCARNITINE] the LC retention time was 4.39 min. For COc1cc2c(c(O)c1C(=O)C=Cc1ccc(O)cc1)C(O)CC(C)(C)O2 (centres undefined) [ISOXANTHOHUMOL B], the LC retention time was 6.64 min. In the case of Nc1nc2[nH]c(=O)cnc2c(=O)[nH]1 [ISOXANTHOPTERIN], the LC retention time is reported as 1.02 min. For O=CC(O)C(O)C(O)C(O)CO (stereo not drawn) [ISTD_ D(+)-GLUCOSE-13C6], the LC retention time was 0.888 min. With CCCCCCCCCCCC(=O)OC(CC(=O)O)C[N+](C)(C)C.[Cl-] (centres undefined) [ISTD_LAUROYL-CARNITINE-D3] the LC retention time was 7.14 min. CSCCC(N)C(=O)O (centres undefined) [ISTD_METHIONINE-METHYL-D3] showed an LC retention time of 1.46 min. C=C(CC(=O)O)C(=O)O [ITACONATE] gave an LC retention time of 3.67 min. Compound O=c1c(O)c(-c2ccc(O)cc2)oc2cc(O)cc(O)c12 [KAEMPFEROL] has an LC retention time of 6.13 min. Compound CC(C)CC(=O)C(=O)O [KETOLEUCINE] has an LC retention time of 4.02 min. Compound O=c1cc(CO)occ1O [KOJIC ACID] has an LC retention time of 1.17 min. In the case of O=C(O)c1cc(=O)c2ccccc2[nH]1 [KYNURENATE], the LC retention time is reported as 4.18 min. Work on Nc1ccccc1C(=O)CC(N)C(=O)O (centres undefined) [KYNURENINE] yielded an LC retention time of 3.62 min. In the case of CC(C)CC1NC(=O)C2CCCN2C1=O [L,L-CYCLO(LEUCYLPROLYL)], the LC retention time is reported as 4.92 min. N[C@@H](Cc1ccc(O)c(O)c1)C(=O)O [L-DOPA] showed an LC retention time of 1.7 min. O=C(O)C[C@H](NC(=O)Cc1c[nH]c2ccccc12)C(=O)O [L-N-(1H-INDOL-3-YLACETYL)ASPARTIC ACID] showed an LC retention time of 4.39 min. For CCCCCCCC(=O)OC(CC(=O)[O-])C[N+](C)(C)C [L-OCTANOYLCARNITINE], the LC retention time was 5.76 min. Compound CCNC(=O)CC[C@H](N)C(=O)O [L-THEANINE] has an LC retention time of 0.897 min. In the case of NC(=O)[C@@H](N)Cc1c[nH]c2ccccc12 [L-TRYPTOPHANAMIDE], the LC retention time is reported as 3.9 min. Work on C[N+](C)(C)C(Cc1c[nH]c2ccccc12)C(=O)[O-] (centres undefined) [LENTICIN] yielded an LC retention time of 3.64 min. CC1(C)OC2CC(=O)OCC23C1CC(=O)C1(C)C3CCC2(C)C(c3ccoc3)OC(=O)C3OC321 (centres undefined) [LIMONIN] showed an LC retention time of 6.87 min. For CCCCCC=CCC=CCCCCCCCC(=O)O [LINOLEATE], the LC retention time was 7.75 min. In the case of NC(Cc1cc(I)c(Oc2ccc(O)c(I)c2)c(I)c1)C(=O)O (centres undefined) [LIOTHYRONINE], the LC retention time is reported as 6.23 min. In the case of NC(=O)CCCCC1CCSS1 (centres undefined) [LIPOAMIDE], the LC retention time is reported as 5.5 min. In the case of CC(CCC(=O)O)C1CCC2C3CCC4CC(O)CCC4(C)C3CCC12C (centres undefined) [LITHOCHOLATE], the LC retention time is reported as 8.27 min. In the case of CC(CCC(=O)NCC(=O)O)C1CCC2C3CCC4CC(O)CCC4(C)C3CCC12C (centres undefined) [LITHOCHOLIC ACID GLYCINE CONJUGATE], the LC retention time is reported as 7.62 min. CC(CCC(=O)NCCS(=O)(=O)O)C1CCC2C3CCC4CC(O)CCC4(C)C3CCC12C (centres undefined) [LITHOCHOLYLTAURINE] gave an LC retention time of 7.55 min. Compound Cc1cc2nc3[nH]c(=O)[nH]c(=O)c3nc2cc1C [LUMICHROME] has an LC retention time of 5.49 min. In the case of O=c1cc(-c2ccc(O)c(O)c2)oc2cc(OC3OC(CO)C(O)C(O)C3O)cc(O)c12 (centres undefined) [LUTEOLIN-7-GLUCOSIDE], the LC retention time is reported as 4.44 min. Work on O=c1cc(-c2ccc(O)c(O)c2)oc2cc(O)cc(O)c12 [LUTEOLIN] yielded an LC retention time of 5.54 min. Compound O=C(O)C=Cc1cccc(O)c1 [M-COUMARIC ACID] has an LC retention time of 4.77 min. In the case of O=C(O)CC(O)C(=O)O (centres undefined) [MALATE], the LC retention time is reported as 1.11 min. Compound O=C(O)CC(=O)O [MALONATE] has an LC retention time of 1.21 min. In the case of OCC1OC(OC2C(CO)OC(OC3C(CO)OC(OC4C(CO)OC(O)C(O)C4O)C(O)C3O)C(O)C2O)C(O)C(O)C1O (centres undefined) [MALTOTETRAOSE], the LC retention time is reported as 1.07 min. For O=c1c2cc(O)c(O)cc2oc2cc(O)c(C3OC(CO)C(O)C(O)C3O)c(O)c12 (centres undefined) [MANGIFERIN], the LC retention time was 3.75 min. In the case of COc1ccc2[nH]cc(CCNC(C)=O)c2c1 [MELATONIN], the LC retention time is reported as 5.57 min. With CC(C)=CCCC(C)=CCC1=C(C)C(=O)c2ccccc2C1=O [MENAQUINONE] the LC retention time was 10.8 min. In the case of CC(CC(=O)O)CC(=O)O [METHYGLUTARATE], the LC retention time is reported as 4.05 min. In the case of COC(=O)CCCN [METHYL 4-AMINOBUTYRATE], the LC retention time is reported as 1.4 min. COC(=O)C=Cc1ccccc1 [METHYL CINNAMATE] gave an LC retention time of 7.95 min. For CCC=CCC1C(=O)CCC1CC(=O)OC (centres undefined) [METHYL JASMONATE], the LC retention time was 7.43 min. For COC(=O)c1ccc(O)cc1 [METHYLPARABEN], the LC retention time was 5.79 min. For CC(CC(=O)O)C(=O)O (centres undefined) [METHYLSUCCINIC ACID], the LC retention time was 3.75 min. CC1(O)CCOC(=O)C1 (centres undefined) [MEVALOLACTONE] showed an LC retention time of 3.33 min. In the case of CC(O)(CCO)CC(=O)O (centres undefined) [MEVALONATE], the LC retention time is reported as 2.75 min. For COC(=O)CCCC(=O)O [MONOMETHYLGLUTARATE], the LC retention time was 3.95 min. O=c1c(O)c(-c2ccc(O)cc2O)oc2cc(O)cc(O)c12 [MORIN] gave an LC retention time of 5.82 min. CC1OC(Oc2c(-c3cc(O)c(O)c(O)c3)oc3cc(O)cc(O)c3c2=O)C(O)C(O)C1O (centres undefined) [MYRICITRIN] showed an LC retention time of 4.4 min. With Cn1cc(C(N)=O)ccc1=O [N1-METHYL-2-PYRIDONE-5-CARBOXAMIDE] the LC retention time was 1.12 min. Work on CC(C)=CCNc1ncnc2nc[nH]c12 [N6-(DELTA2-ISOPENTENYL)-ADENINE] yielded an LC retention time of 4.63 min. In the case of CC(=O)NCCC(=O)O [N-ACETYL-BETA-ALANINE], the LC retention time is reported as 1.03 min. For CC(=O)NC(C)C(=O)O (centres undefined) [N-ACETYLALANINE], the LC retention time was 2.4 min. Work on CC(=O)NC(CC(N)=O)C(=O)O (centres undefined) [N-ACETYLASPARAGINE] yielded an LC retention time of 1.1 min. CC(=O)NC(CC(=O)O)C(=O)O (centres undefined) [N-ACETYLASPARTATE] showed an LC retention time of 1.41 min. For CC(=O)NC(CS)C(=O)O (centres undefined) [N-ACETYLCYSTEINE], the LC retention time was 4 min. Work on CC(=O)NC(CCC(=O)O)C(=O)O (centres undefined) [N-ACETYLGLUTAMATE] yielded an LC retention time of 2.2 min. For CC(=O)NCC(=O)O [N-ACETYLGLYCINE], the LC retention time was 1.26 min. Work on CC(=O)NCCc1cnc[nH]1 [N-ACETYLHISTAMINE] yielded an LC retention time of 0.998 min. Compound CC(=O)NC(CC(C)C)C(=O)O (centres undefined) [N-ACETYLLEUCINE] has an LC retention time of 4.88 min. With CSCCC(NC(C)=O)C(=O)O (centres undefined) [N-ACETYLMETHIONINE] the LC retention time was 4.21 min. For CC(=O)NC1C(O)OC(CO)C(O)C1OC(C)C(=O)O (centres undefined) [N-ACETYLMURAMATE], the LC retention time was 1.09 min. Compound CC(=O)NC1C(O)CC(O)(C(=O)O)OC1C(O)C(O)CO (centres undefined) [N-ACETYLNEURAMINATE] has an LC retention time of 0.9 min. For CC(=O)NC(Cc1ccccc1)C(=O)O (centres undefined) [N-ACETYLPHENYLALANINE], the LC retention time was 5.18 min. CC(=O)N1CCCC1C(=O)O (centres undefined) [N-ACETYLPROLINE] gave an LC retention time of 3.77 min. CC(=O)NCCCCN [N-ACETYLPUTRESCINE] showed an LC retention time of 0.96 min. Compound CC(=O)NC(CO)C(=O)O (centres undefined) [N-ACETYLSERINE] has an LC retention time of 1.12 min. Work on CC(=O)NCCc1c[nH]c2ccc(O)cc12 [N-ACETYLSEROTONIN] yielded an LC retention time of 4.42 min. In the case of CC(=O)NC(Cc1c[nH]c2ccccc12)C(=O)O (centres undefined) [N-ACETYLTRYPTOPHAN], the LC retention time is reported as 5.31 min. For CCNC(=O)C1CC(C)CCC1C(C)C (centres undefined) [N-ETHYL-5-METHYL-2-(1-METHYLETHYL)-CYCLOHEXANECARBOXAMIDE], the LC retention time was 7.41 min. CSCC[C@H](NC=O)C(=O)O [N-FORMYL-L-METHIONINE] showed an LC retention time of 4.06 min. In the case of O=CNCC(=O)O [N-FORMYLGLYCINE], the LC retention time is reported as 0.962 min. With O=CNC(Cc1ccccc1)C(=O)O (centres undefined) [N-FORMYLPHENYLALANINE] the LC retention time was 4.77 min. CNC(=O)c1cccnc1 [N-METHYLNICOTINAMIDE] gave an LC retention time of 1.05 min. CNCCc1c[nH]c2ccccc12 [N-METHYLTRYPTAMINE] gave an LC retention time of 4.45 min. CC1OC(OC2C(Oc3cc(O)c4c(c3)OC(c3ccc(O)cc3)CC4=O)OC(CO)C(O)C2O)C(O)C(O)C1O (centres undefined) [NARINGIN] gave an LC retention time of 4.7 min. CC1OC(OCC2OC(Oc3cc(O)c4c(c3)OC(c3ccc(O)cc3)CC4=O)C(O)C(O)C2O)C(O)C(O)C1O (centres undefined) [NARIRUTIN] showed an LC retention time of 4.59 min. NC(=O)c1ccc[n+](C2OC(COP(=O)(O)OP(=O)(O)OCC3OC(n4cnc5c(=O)[nH]cnc54)C(O)C3O)C(O)C2O)c1 (centres undefined) [NICOTINAMIDE HYPOXANTHINE DINUCLEOTIDE] gave an LC retention time of 2.02 min. For NC(=O)c1ccc[n+](C2OC(COP(=O)([O-])O)C(O)C2O)c1 (centres undefined) [NICOTINAMIDE MONONUCLEOTIDE], the LC retention time was 0.959 min. Work on O=C(O)c1cccnc1 [NICOTINATE] yielded an LC retention time of 1.42 min.
